Laboratory results: PubChem BioAssay AID1845210 (Molecular Pharmacology Branch, DTP, NCI, 2023)

Tested on: NCI-H226 complex tumor spheroids, viability
Experiment: Anticancer human tumor NCI-H226 cell line growth inhibition;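 note: spheroids exposed to compound for 7 days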;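 for viability, T/C: 100% = DMSO vehicle control viability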
Conditions: for IC50: curve of first compound; for viability, T/C: stronger effect = lower value
Method in brief: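 Complex spheroids of malignant cells with endothelial cells and mesenchymal stem cells; agents alone or combined, from near clinical Cmax (or 10 microM if unknown) down in half-log steps, 0.25% DMSO final.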

[1] = second compound 30 pM, first compound 0.00949 µM
[2] = second compound 30 pM, first compound 0.03 µM
[3] = second compound 30 pM, first compound 0.0949 µM
[4] = second compound 30 pM, first compound 0.3 µM
[5] = second compound 30 pM, first compound 0.949 µM
[6] = second compound 30 pM, first compound 3 µM
[7] = second compound 94.9 pM, first compound 0.00949 µM
[8] = second compound 94.9 pM, first compound 0.03 µM
[9] = second compound 94.9 pM, first compound 0.0949 µM
[10] = second compound 94.9 pM, first compound 0.3 µM
[11] = second compound 94.9 pM, first compound 0.949 µM
[12] = second compound 94.9 pM, first compound 3 µM
[13] = second compound 0.0003 µM, first compound 0.00949 µM
[14] = second compound 0.0003 µM, first compound 0.03 µM
[15] = second compound 0.0003 µM, first compound 0.0949 µM
[16] = second compound 0.0003 µM, first compound 0.3 µM
[17] = second compound 0.0003 µM, first compound 0.949 µM
[18] = second compound 0.0003 µM, first compound 3 µM
[19] = second compound 0.000949 µM, first compound 0.00949 µM
[20] = second compound 0.000949 µM, first compound 0.03 µM
[21] = second compound 0.000949 µM, first compound 0.0949 µM
[22] = second compound 0.000949 µM, first compound 0.3 µM
[23] = second compound 0.000949 µM, first compound 0.949 µM
[24] = second compound 0.000949 µM, first compound 3 µM
[25] = second compound 0.003 µM, first compound 0.00949 µM
[26] = second compound 0.003 µM, first compound 0.03 µM
[27] = second compound 0.003 µM, first compound 0.0949 µM
[28] = second compound 0.003 µM, first compound 0.3 µM
[29] = second compound 0.003 µM, first compound 0.949 µM
[30] = second compound 0.003 µM, first compound 3 µM

Row | Structure (SMILES) | IC50 (second compound 30 pM) [µM] | IC50 (second compound 94.9 pM) [µM] | IC50 (second compound 0.0003 µM) [µM] | IC50 (second compound 0.000949 µM) [µM] | IC50 (second compound 0.003 µM) [µM] | viability, T/C [3] [%] | viability, T/C [4] [%] | viability, T/C [5] [%] | viability, T/C [6] [%] | viability, T/C [9] [%] | viability, T/C [10] [%] | viability, T/C [11] [%] | viability, T/C [12] [%] | viability, T/C [15] [%] | viability, T/C [16] [%] | viability, T/C [17] [%] | viability, T/C [18] [%] | viability, T/C [21] [%] | viability, T/C [22] [%] | viability, T/C [23] [%] | also measured
1 | CNCc1ccc(-c2cc(-c3nc(-c4ccc(S(=O)(=O)C(C)C)cc4)cnc3N)on2)cc1 + COc1cc2c(cc1O)CCNC21CSC2c3c(OC(C)=O)c(C)c4c(c3C(COC1=O)N1C(O)C3Cc5cc(C)c(OC)c(O)c5C(C21)N3C)OCO4 | 1.61 | 1.48 | 1.5 | 1.02 | < 0.00949 | 103 | 123 | 91.9 | 0.9 | 105 | 127 | 80.9 | 0.45 | 106 | 138 | 82.9 | 0.44 | 124 | 91.4 | 53.9 | viability, T/C [1]: 89.5%; viability, T/C [2]: 96.1%; viability, T/C [7]: 85.9%; viability, T/C [8]: 99.4%; viability, T/C [13]: 89.7%; viability, T/C [14]: 105%; viability, T/C [19]: 88.1%; viability, T/C [20]: 94.1%; viability, T/C [24]: 0.33%; viability, T/C [25]: 2.12%; viability, T/C [26]: 1.88%; viability, T/C [27]: 3%; viability, T/C [28]: 1.46%; viability, T/C [29]: 0.37%; viability, T/C [30]: 0.31%
2 | Cn1ncnc1[C@H]1c2n[nH]c(=O)c3cc(F)cc(c23)N[C@@H]1c1ccc(F)cc1 + COc1cc2c(cc1O)CCNC21CSC2c3c(OC(C)=O)c(C)c4c(c3C(COC1=O)N1C(O)C3Cc5cc(C)c(OC)c(O)c5C(C21)N3C)OCO4 | > 3 | > 3 | > 3 | > 3 | 0.157 | 106 | 92.8 | 91.3 | 111 | 104 | 102 | 101 | 110 | 113 | 119 | 119 | 113 | 71.1 | 93.3 | 87.1 | viability, T/C [1]: 90%; viability, T/C [2]: 103%; viability, T/C [7]: 103%; viability, T/C [8]: 101%; viability, T/C [13]: 122%; viability, T/C [14]: 100%; viability, T/C [19]: 79.2%; viability, T/C [20]: 76.2%; viability, T/C [24]: 76.2%; viability, T/C [25]: 53.1%; viability, T/C [26]: 70.3%; viability, T/C [27]: 85.7%; viability, T/C [28]: 24.9%; viability, T/C [29]: 20.6%; viability, T/C [30]: 0.42%
3 | O=C(c1cc(Cc2n[nH]c(=O)c3ccccc23)ccc1F)N1CCN(C(=O)C2CC2)CC1 + COc1cc2c(cc1O)CCNC21CSC2c3c(OC(C)=O)c(C)c4c(c3C(COC1=O)N1C(O)C3Cc5cc(C)c(OC)c(O)c5C(C21)N3C)OCO4 | > 30 | > 30 | > 30 | > 30 | < 0.0949 | 94.5 | 109 | 109 | 108 | 109 | 95 | 105 | 101 | 115 | 129 | 126 | 118 | 126 | 112 | 100 | viability, T/C (second compound 30 pM, first compound 9.49 µM): 99.4%; viability, T/C (second compound 30 pM, first compound 30 µM): 82.5%; viability, T/C (second compound 94.9 pM, first compound 9.49 µM): 99.4%; viability, T/C (second compound 94.9 pM, first compound 30 µM): 102%; viability, T/C (second compound 0.0003 µM, first compound 9.49 µM): 112%; viability, T/C (second compound 0.0003 µM, first compound 30 µM): 93.2%; viability, T/C [24]: 103%; viability, T/C (second compound 0.000949 µM, first compound 9.49 µM): 87.4%; viability, T/C (second compound 0.000949 µM, first compound 30 µM): 49.5%; viability, T/C [27]: 2.43%; viability, T/C [28]: 16.1%; viability, T/C [29]: 1.13%; viability, T/C [30]: 2.74%; viability, T/C (second compound 0.003 µM, first compound 9.49 µM): 0.95%; viability, T/C (second compound 0.003 µM, first compound 30 µM): 0.69%
